Source: ChEMBL document CHEMBL3832081, “DailyMed|setid=caaf1b7f-eaab-4fb6-a955-b7d881038fef | METRONIDAZOLE - metronidazole gel|Sandoz Inc”

Assay: Evaluation of pharmacokinetic parameters for metronidazole following topical administration of metronidazole gel USP, 1% to the face of 13 patients with moderate to severe rosacea.
Format: ADME, organism-based
Set-up: dose 1 g, route topical
Details: human, in vivo, topical or ocular, dosed compound id 31, dosed compound name METRONIDAZOLE, gender male and female, regimen Once daily, study dosing duration 7 days, tissue Plasma

For `Cc1ncc([N+](=O)[O-])n1CCO` [METRONIDAZOLE], the Cmax (1 g) was 32 ng/mL, the AUC (1 g, read-out: AUC(0-24)) was 595 ng·h/mL and the Tmax (dose 1 g, route topical) was 6 to 10 h.
